Reference: patent US6136992A, “2-alkoxy estradiols and derivatives thereof” (The United States of America as represented by the …, priority 1998, dated 2000)
Where a name gives a salt, the structure may show the parent alone. Read-outs that look alike come from different tables or passages of the source.

Key:
estrogen receptor = biological target: T1, estrogen receptor (Rattus norvegicus, UniProt P06211); assay: Estrogen binding affinity assay (comparative radiometric binding, rat uterine cytosol); conditions: for RBA (relative binding affinity): 0° C., estradiol = 100
T1 construct: from tissue; host or cells: rat uterine cytosol
T1 sequence (P06211 1-600): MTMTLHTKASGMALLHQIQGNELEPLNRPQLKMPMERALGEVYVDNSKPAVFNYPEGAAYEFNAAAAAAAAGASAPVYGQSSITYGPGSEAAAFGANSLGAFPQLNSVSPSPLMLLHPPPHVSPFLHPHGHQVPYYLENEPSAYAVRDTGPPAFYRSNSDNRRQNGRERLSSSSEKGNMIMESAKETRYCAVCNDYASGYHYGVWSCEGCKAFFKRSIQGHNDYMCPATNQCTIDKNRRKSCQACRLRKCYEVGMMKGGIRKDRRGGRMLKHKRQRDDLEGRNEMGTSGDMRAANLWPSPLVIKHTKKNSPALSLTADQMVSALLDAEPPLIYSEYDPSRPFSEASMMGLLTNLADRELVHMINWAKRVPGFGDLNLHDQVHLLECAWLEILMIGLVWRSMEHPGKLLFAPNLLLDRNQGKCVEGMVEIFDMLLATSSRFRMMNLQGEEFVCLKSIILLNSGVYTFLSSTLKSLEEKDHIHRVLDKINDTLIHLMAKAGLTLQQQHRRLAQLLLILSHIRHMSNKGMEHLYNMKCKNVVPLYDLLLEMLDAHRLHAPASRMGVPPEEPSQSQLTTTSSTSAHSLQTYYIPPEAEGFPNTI
Experimental: The assay of (11), (12) and (16) were conducted at 0° C. for 20 hours, while those for (1) and (2) were performed at 0° C. for 18 hours.

solid tumors = conditions: cited from earlier work
tubulin = assay: Inhibition of tubulin polymerization (turbidimetry at 350 nm); format: biochemical, bovine; conditions: for IC50: 26° C., 20 min, read-out: Inhibn of Tubulin Polymn IC50
Experimental: Four instruments were used, and two control reaction mixtures were present in each experiment. […] IC50 values were determined graphically. […]
Inhibition of tubulin polymerization was investigated using electrophoretically homogeneous tubulin from bovine brain.

[1] = system: MDA-MB-435 breast cancer cells; assay: NCI in vitro anticancer screen, MDA-MB-435 breast cancer; format: cell-based; conditions: Homo sapiens, MDA-MB-435, read-out: cytotoxicity GI50, Breast MDA-MB-435
Description: The effects of the analogs on cancer cell growth was investigated in the National Cancer Institute (NCI) Developmental Therapeutics Program's in vitro panel of approximately 55 cell lines (Grever et al., Seminars in Oncology 19:622 (1992), Alley et al., Cancer Research 48:589 (1988) and Montes et al., J. National Cancer Institute 83:757 (1991)).

UACC-62 melanoma cells = assay: NCI in vitro anticancer screen, UACC-62 melanoma; format: cell-based; conditions: Homo sapiens, UACC-62, read-out: cytotoxicity GI50, Melanoma UACC-62
Description: (§1) The effects of the analogs on cancer cell growth was investigated in the National Cancer Institute (NCI) Developmental Therapeutics Program's in vitro panel of approximately 55 cell lines (Grever et al., Seminars in Oncology 19:622 (1992), Alley et al., Cancer Research 48:589 (1988) and Montes et al., J. National Cancer Institute 83:757 (1991)). Representative results are listed in Table 1 for HOP-62 non-small-cell lung cancer cells, HCT-116 colon cancer cells, SF-539 central nervous system (CNS) cancer cells, UACC-62 melanoma cells, OVCAR ovarian cancer cells, SN12-C renal cancer cells, DU-145 prostate cancer cells, and MDA-MB-435 breast cancer cells.
(§2) ^a The cytotoxicity GI50 values are the concentrations

[2] = system: SF-539 central nervous system (CNS) cancer cells; assay: NCI in vitro anticancer screen, SF-539 CNS cancer; format: cell-based; conditions: Homo sapiens, read-out: cytotoxicity GI50, CNS SF-539
Description: as §1, §2

[3] = system: HCT-116 colon cancer cells; assay: NCI in vitro anticancer screen, HCT-116 colon cancer; format: cell-based; conditions: Homo sapiens, HCT-116, read-out: cytotoxicity GI50, Colon HCT-116
Description: as §1, §2

[4] = system: all human cancer cell lines (approximately 55); assay: NCI in vitro anticancer screen, all cell lines; format: cell-based
Description: as §1
^b Mean graph midpoint for all human cancer cell lines (approximately

[5] = system: OVCAR ovarian cancer cells; assay: NCI in vitro anticancer screen, OVCAR ovarian cancer; format: cell-based; conditions: Homo sapiens, read-out: cytotoxicity GI50, Ovarian OVCAR
Description: as §1, §2

[6] = system: SN12-C renal cancer cells; assay: NCI in vitro anticancer screen, SN12-C renal cancer; format: cell-based; conditions: Homo sapiens, SN12C, read-out: cytotoxicity GI50, Renal SN12-C
Description: as §1, §2

[7] = system: HOP-62 non-small-cell lung cancer cells; assay: NCI in vitro anticancer screen, HOP-62 non-small-cell lung cancer; format: cell-based; conditions: Homo sapiens, HOP-62, read-out: cytotoxicity GI50, Lung HOP-62
Description: as §1, §2

[8] = system: DU-145 prostate cancer cells; assay: NCI in vitro anticancer screen, DU-145 prostate cancer; format: cell-based; conditions: Homo sapiens, DU-145, read-out: cytotoxicity GI50, Prostate DU-145
Description: as §1, §2

[9] = approximately 55 cell lines, read-out: MGM (mean graph midpoint for all human cancer cell lines), GI50
[10] = read-out: MGM (mean graph midpoint for all human cancer cell lines), GI50

SMILES | RBA (relative binding affinity) (estrogen receptor; 18 hours) | inhibition of neovascularization and growth of solid tumors in mice (solid tumors) | signs of toxicity at tumor-inhibiting doses (solid tumors; mice) | IC50 (tubulin) | inhibition of tubulin polymerization, relative activity in words (tubulin; comparison with 2-methoxy estradiol (1) or 2-ethoxy estradiol (2)) | GI50 [1] | GI50 (UACC-62 melanoma cells) | GI50 [2] | GI50 [3] | GI50 [4, 9] | GI50 [5] | GI50 [6] | GI50 [7] | GI50 [8] | GI50 [4, 10] | affinity for the estrogen receptor, in words (estrogen receptor) | RBA (relative binding affinity) (estrogen receptor; 20 hours) | GI50 ([4]; read-out: GI50)
COc1cc2c(cc1O)CC[C@@H]1[C@@H]2CC[C@]2(C)[C@@H](O)CC[C@@H]12 [Compound 1, 2-methoxy estradiol, reference compound] | 0.245 | potent inhibitor of neovascularization of solid tumors and inhibits their growth | no apparent signs of toxicity | 2.9 µM | – | – | – | – | – | – | – | – | – | – | – | – | – | –
CCOc1cc2c(cc1O)CC[C@@H]1[C@@H]2CC[C@]2(C)[C@@H](O)CC[C@@H]12 [Compound 2, 2-ethoxy estra-1,3,5(10)-trien-3,17β-diol] | – | – | – | 0.91 µM | over three times more active than 2-methoxy estradiol (1) | – | – | – | – | – | – | – | – | – | – | – | – | –
C[C@]12CC[C@@H]3c4cc(OCC(F)(F)F)c(O)cc4CC[C@H]3[C@@H]1CC[C@@H]2O [Compound 3, 2-(2',2',2'-trifluoroethoxy)estra-3,17β-diol] | – | – | – | 1.7 µM | – | – | – | – | – | – | – | – | – | – | – | – | – | –
CC(=O)Oc1cc2c(cc1OCC(F)(F)F)[C@H]1CC[C@]3(C)[C@@H](OC(C)=O)CC[C@H]3[C@@H]1CC2=O [Compound 6, 2-(2',2',2'-Trifluoroethoxy)-3,17β-Diacetyloxy-Estra-6-Oxo-1,3,5(10)-Triene] | – | – | – | 6 µM | – | 26.5 µM | 3.33 µM | 5.11 µM | 3.71 µM | 9.77 µM | 3.52 µM | 23.5 µM | 8.7 µM | 15 µM | – | – | – | –
CCOc1cc2c(cc1OC(C)=O)C(=O)C[C@@H]1[C@@H]2CC[C@]2(C)[C@@H](OC(C)=O)CC[C@@H]12 [Compound 7, 2-Ethoxy-3,17β-Diacetoxy-6-Oxoestra-1,3,5(10)-triene] | – | – | – | > 40 µM | – | 18.4 µM | 17.7 µM | 22.6 µM | 21.1 µM | 19.5 µM | 23.7 µM | 19.8 µM | 20 µM | 19.8 µM | – | – | – | –
CCOc1cc2c(cc1O)C(=O)C[C@@H]1[C@@H]2CC[C@]2(C)[C@@H](O)CC[C@@H]12 [Compound 10, 2-Ethoxy-6-Oxoestra-1,3,5(10)-Triene-3,17β-Diol] | – | – | – | 4.8 µM | – | < 0.01 µM | 0.01 µM | 0.71 µM | 0.02 µM | – | 0.63 µM | 0.18 µM | 0.03 µM | 0.17 µM | 0.13 µM | – | – | –
CCOc1cc2c(cc1O)C(=NO)C[C@@H]1[C@@H]2CC[C@]2(C)[C@@H](O)CC[C@@H]12 [Compound 11, 2-Ethoxy-6-Hydroximinoestra-1,3,5(10)-Triene-3,17β-Diol] | – | – | – | 0.62 µM | – | < 0.01 µM | < 0.01 µM | – | < 0.01 µM | – | < 0.01 µM | < 0.01 µM | < 0.01 µM | < 0.01 µM | 0.04 µM | no affinity for the estrogen receptor | < 0.001 | < 0.01 µM
CCOc1cc2c(cc1O)C(=NN)C[C@@H]1[C@@H]2CC[C@]2(C)[C@@H](O)CC[C@@H]12 [Compound 13, 2-Ethoxy-6-Hydrazone-estra-1,3,5(10)-Triene-3,17β-Diol] | – | – | – | 15 µM | – | 6.5 µM | 0.88 µM | 2.76 µM | 2.12 µM | 4.17 µM | 5.43 µM | 16.8 µM | 1.18 µM | 17 µM | – | – | – | –
CCOc1cc2c(cc1O)[C@@H](O)C[C@@H]1[C@@H]2CC[C@]2(C)[C@@H](O)CC[C@@H]12 [Compound 14, 2-Ethoxyestra-1,3,5(10)-Triene-3,6α,17β-Triol] | – | – | – | 2.5 µM | – | 5.39 µM | 0.28 µM | – | 0.35 µM | 0.83 µM | 0.35 µM | 0.66 µM | – | 0.71 µM | – | – | – | –
CCOc1cc2c(cc1O)C(=NNS(=O)(=O)c1ccc(C)cc1)C[C@@H]1[C@@H]2CC[C@]2(C)[C@@H](O)CC[C@@H]12 [Compound 15, 2-Ethoxy-6-Tosylhydrazone-Estra-1,3,5(10)-Triene-3,17β-Diol] | – | – | – | > 40 µM | – | – | – | 3.45 µM | 6.67 µM | 6.16 µM | 3.18 µM | 12.1 µM | 5.14 µM | 14.9 µM | – | – | – | –
CCOc1cc2c(cc1O)C(=NOC)C[C@@H]1[C@@H]2CC[C@]2(C)[C@@H](O)CC[C@@H]12 [Compound 16, 2-Ethoxy-6-(O-Methyl)hydroximino-Estra-1,3,5(10)-Triene-3,17β-Diol] | – | – | – | 0.75 µM | – | 0.02 µM | < 0.01 µM | – | < 0.01 µM | – | < 0.01 µM | 0.26 µM | < 0.01 µM | 0.32 µM | 0.24 µM | no affinity for the estrogen receptor | < 0.001 | –
CCOc1cc2c(cc1O)CC[C@@H]1[C@@H]2CC[C@]2(C)C(N)CC[C@@H]12 (stereo partly drawn) [Compound 20, 2-Ethoxy-3-Hydroxy-17-α/β-Aminoestra-1,3,5(10)-Triene Hydrochloride] | – | – | – | > 40 µM | – | 1.74 µM | 3.61 µM | 3.99 µM | 3.15 µM | 3.31 µM | 1.25 µM | 5.24 µM | 10.9 µM | 1.93 µM | – | – | – | –
